What all share (type): binding
One assay concerns the target T1, STAT4 (Homo sapiens, UniProt Q14765).
T1 sequence (Q14765 1-748): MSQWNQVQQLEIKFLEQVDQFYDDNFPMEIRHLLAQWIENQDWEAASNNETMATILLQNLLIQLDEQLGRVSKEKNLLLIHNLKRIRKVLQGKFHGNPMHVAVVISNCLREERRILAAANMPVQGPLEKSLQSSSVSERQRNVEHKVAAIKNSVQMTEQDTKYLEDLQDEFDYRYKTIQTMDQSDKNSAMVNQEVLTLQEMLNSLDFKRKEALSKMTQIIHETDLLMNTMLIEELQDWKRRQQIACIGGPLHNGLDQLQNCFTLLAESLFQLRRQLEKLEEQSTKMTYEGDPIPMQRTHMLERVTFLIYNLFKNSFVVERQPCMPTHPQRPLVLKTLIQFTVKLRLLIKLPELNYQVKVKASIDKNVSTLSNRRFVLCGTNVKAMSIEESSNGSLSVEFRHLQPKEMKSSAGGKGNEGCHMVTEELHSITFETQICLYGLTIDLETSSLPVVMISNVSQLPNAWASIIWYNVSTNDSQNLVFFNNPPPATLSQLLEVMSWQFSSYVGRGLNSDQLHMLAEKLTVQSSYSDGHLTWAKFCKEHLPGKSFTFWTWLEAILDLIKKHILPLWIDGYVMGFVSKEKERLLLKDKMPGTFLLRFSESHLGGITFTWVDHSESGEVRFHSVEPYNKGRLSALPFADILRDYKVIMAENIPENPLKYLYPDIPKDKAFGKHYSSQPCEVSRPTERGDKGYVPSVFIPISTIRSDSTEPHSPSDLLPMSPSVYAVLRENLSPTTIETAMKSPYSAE
As to the kind of experiment: Fluorescence polarization assay, STAT4.

The target in another assay is T2, Lck SH2 (Homo sapiens, UniProt P06239).
T2 construct: the more distantly related SH2 domain of the tyrosine kinase Lck
Nature of the assay: Fluorescence polarization assay, Lck SH2. Particulars: read-out: Lck SH2 maximum inhibition.

A further assay addresses T3, wild-type STAT5b (Homo sapiens, UniProt P51692).
T3 sequence (P51692 1-787): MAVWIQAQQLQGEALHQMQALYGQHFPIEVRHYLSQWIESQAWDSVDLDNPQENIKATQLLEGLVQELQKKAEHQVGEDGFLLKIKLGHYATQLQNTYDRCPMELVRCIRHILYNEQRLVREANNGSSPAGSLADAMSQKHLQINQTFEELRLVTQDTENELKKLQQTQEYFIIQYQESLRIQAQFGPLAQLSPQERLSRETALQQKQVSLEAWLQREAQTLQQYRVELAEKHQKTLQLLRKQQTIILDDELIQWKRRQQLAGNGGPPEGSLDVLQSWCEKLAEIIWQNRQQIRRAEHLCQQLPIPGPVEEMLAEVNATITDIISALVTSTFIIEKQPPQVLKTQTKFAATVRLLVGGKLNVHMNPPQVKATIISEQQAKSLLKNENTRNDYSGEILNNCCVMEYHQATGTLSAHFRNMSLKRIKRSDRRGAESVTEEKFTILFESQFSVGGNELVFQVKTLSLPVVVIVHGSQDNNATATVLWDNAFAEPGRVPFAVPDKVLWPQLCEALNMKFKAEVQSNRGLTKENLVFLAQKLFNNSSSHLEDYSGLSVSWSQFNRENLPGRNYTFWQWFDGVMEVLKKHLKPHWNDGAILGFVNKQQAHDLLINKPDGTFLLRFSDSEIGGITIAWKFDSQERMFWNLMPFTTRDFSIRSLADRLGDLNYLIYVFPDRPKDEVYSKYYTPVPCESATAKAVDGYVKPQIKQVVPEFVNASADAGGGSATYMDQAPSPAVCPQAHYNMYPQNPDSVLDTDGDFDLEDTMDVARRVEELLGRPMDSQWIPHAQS
As to the kind of experiment: Isothermal titration calorimetry, wild-type STAT5b. The note with it: ITC, 25 °C, n = 3.

In the next assay the target is T4, STAT5b Arg618Ala (Homo sapiens, UniProt P51692, R618A).
T4 sequence (P51692 1-787 R618A): T3 sequence (P51692 1-787) with R618A
Nature of the assay: Isothermal titration calorimetry, STAT5b Arg618Ala. The note with it: ITC, 25 °C.

Residue numbers refer to the chain shown, from its start.

T2 sequence (P06239 127-224 limits assumed): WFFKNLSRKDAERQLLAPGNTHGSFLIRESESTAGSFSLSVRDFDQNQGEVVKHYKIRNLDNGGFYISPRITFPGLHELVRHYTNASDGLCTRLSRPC

With `O=C(COc1ccc(C(=O)Nc2ccc(Oc3ccccc3)cc2)cc1)NCc1ccc(OP(=O)(O)O)c(OP(=O)(O)O)c1` [compound 4, 4-((2-(4-((4-phenoxyphenyl)carbamoyl)phenoxy)acetamido)methyl)-1,2-phenylene bis(dihydrogen phosphate)], 9.1 ± 0.3 µM corresponded to half-maximal inhibition against STAT4 (IC50). Further, the inhibition at 40 µM on Lck SH2 was found to be 25 ± 2%. In addition, at wild-type STAT5b, the ΔH is -4.1 ± 0.5 kcal/mol and the “−TΔS” value was -4.8 ± 0.6 kcal/mol. Besides, at STAT5b Arg618Ala, the Kd came to 5.6 ± 1.7 µM.

Values taken from paper PMC5429769, “Rational development of Stafib-2: a selective, nanomolar inhibitor of the transcription factor STAT5b” (Scientific Reports, 2017).
